Experimental data taken from paper PMC8007387 (Clinical Pharmacokinetics, 2021).
Where two headings read alike, the source gives them in different places.

Tests used:
[1] = male, human, in vivo
[2] = system: QTcF interval; conditions: in vivo
[3] = clinical; conditions: male, human, in vivo
[4] = clinical; conditions: both, human, in vivo
[5] = in vivo; cited from earlier work
[6] = in vivo, cited from earlier work
[7] = system: CES-1, CatA and CYP3A; set-up: species or system human
[8] = Sprague-Dawley, rat, in vivo, iv, 10 mg/kg
[9] = monkey, in vivo
[10] = both, human, in vivo
[11] = human, in vivo
[12] = system: MERS-CoV; conditions: rhesus monkey, in vivo; cited from earlier work
[13] = in vivo; conditions: rhesus monkey, iv
[14] = human, plasma; cited from earlier work
[15] = human; cited from earlier work
[16] = system: carboxylesterase 1; conditions: cited from earlier work
[17] = system: cathepsin A; conditions: cited from earlier work
[18] = system: cytochrome P450 (CYP) 3A; conditions: cited from earlier work
[19] = system: pregnane X receptor; conditions: cited from earlier work
[20] = system: aryl hydrocarbon receptor; conditions: cited from earlier work
[21] = system: CYP3A4; conditions: cited from earlier work
[22] = system: OATP1B1; conditions: cited from earlier work
[23] = system: OATP1B3; conditions: cited from earlier work
[24] = system: MATE1; conditions: cited from earlier work
[25] = system: CYP2C8; conditions: recombinant enzyme; cited from earlier work
[26] = system: CYP2D6; conditions: recombinant enzyme; cited from earlier work
[27] = system: CYP3A; conditions: recombinant enzyme; cited from earlier work
[28] = system: OATP1B1; conditions: cited from earlier work; remark: listed apart in the source
[29] = system: P-glycoprotein; conditions: cited from earlier work

In the case of `N#C[C@@]1(c2ccc3c(N)ncnn23)O[C@H](CO)[C@@H](O)[C@H]1O` [GS-441524], the “secretory clearance as share of CLr” value [1] is reported as 21 % of CLr, the QTcF interval prolongation [2] is reported as “do not cause QTcF interval prolongation” and the CL renal ([3]; estimated secretory clearance CLr,s) is reported as 31 mL/min. For the same compound, the Tmax ([3]; iv) was 3 h, the CL renal ([3]; renal clearance CLr) was 151 mL/min and the AUC ([4]; 100 mg) was 2230 ng·h/mL. The Cmax ([4]; 100 mg) was 145 ng/mL, the Tmax ([4]; 100 mg) was 1.51 h and the half-life ([4]; 100 mg, t1/2, median (Q1, Q3)) was 27.4 h. The AUC(0-t) ([4]; 200 mg) was 2190 ng·h/mL, the Cmax ([4]; 200 mg) was 143 ng/mL and the Tmax ([4]; 200 mg) was 2 h. For the same compound, the “dose recovered in urine as this analyte” value [5] was 48.6%, the t1/2 ([6]; 150 mg) was ~ 24.5 h and the “dose dependence of PK” value ([6]; iv) was “linear pharmacokinetics”. For the same compound, the accumulation in plasma [6] was “approximately 1.9 fold”, the “steady state reached by day” value [6] was 4 days and the “steady state reached on day” value [6] was 4 days.

With `CCC(CC)COC(=O)[C@H](C)N[P@](=O)(OC[C@H]1O[C@@](C#N)(c2ccc3c(N)ncnn23)[C@H](O)[C@@H]1O)Oc1ccccc1` [RDV, 2-ethylbutyl N-{(S)-[2-C(4-aminopyrrolo[2,1-f][1,2,4]triazin-7-yl)-2-5-anhydro-d-altrononitril-6-O-yl]phenoxyphosphoryl}-L-alaninate] the extraction ratio [7] was 0.6–0.8, the “administered radioactivity excreted in feces” value [8] was 27.8% and the “administered radioactivity excreted in urine” value [8] was 63.0%. The “time within which most of the radioactivity was excreted” value [8] was at most 48 h, the “administered radioactivity recovered in feces” value [9] was 25.6% and the “administered radioactivity recovered in urine” value [9] was 33.6%. The “blood-to-plasma ratio of [14C]-radioactivity” value [1] was 0.68, the “mean total recovery of the radioactive dose” value [1] was over 92% and the “radioactive dose recovered in feces” value [1] was about 18%. For the same compound, the “radioactive dose recovered in urine” value [1] was “approximately 74%”, the “median time of occurrence of maximum observed plasma concentration” value [10] was ~ 0.7 h and the “graded ALT abnormalities” value ([11]; both) was “eight participants with Grade 1 and 1 subject with Grade 2 ALT abnormalities”. The “infusion-site phlebitis, participants” value ([11]; both) was 40%, the “serious AEs, Grade 3 or 4 AEs, deaths” value ([11]; both) was “no serious AEs, Grade 3 or 4 AEs, or deaths” and the “graded ALT abnormalities” value [11] was “no graded alanine aminotransferase (ALT) abnormalities”. The overall tolerability [11] was “generally well tolerated”, the “transient Grade 1 AST abnormalities” value [11] was “four of the nine participants with graded ALT abnormalities” and the “upper bound of two-sided 90% CI of predicted mean ΔΔQTcF” value ([2]; human) was under 10 ms. The QTcF interval prolongation [2] was “do not cause QTcF interval prolongation”, the “lung viral loads lower in each lung lobe” value [12] was 2.5–4 logs and the “lung viral loads versus vehicle-treated animals” value [12] was “lower when all lung lobes were combined”. For the same compound, the “prophylactic efficacy versus vehicle-treated animals” value [12] was “significant reduction in clinical scores, clinical signs of respiratory disease, and viral RNA levels”, the AUC(0-t) [13] was 1430 ng·h/mL and the Cmax [13] was 3350 ng/mL. The clearance [3] was 1170 mL/min, the half-life ([3]; iv, 150 mg) was about 1 h and the CL renal ([3]; renal clearance CLr) was 129 mL/min. It also gave an AUC ([4]; 100 mg) of 1590 ng·h/mL, a Cmax ([4]; 100 mg) of 2230 ng/mL and a Tmax ([4]; 100 mg) of 0.68 h. It also gave a clearance ([4]; 100 mg, CLss, mean (%CV)) of about 1080 mL/min, a half-life ([4]; 100 mg, t1/2, median (Q1, Q3)) of 0.96 h and an AUC(0-t) ([4]; 200 mg) of 2860 ng·h/mL. The Cmax ([4]; 200 mg) was 4380 ng/mL, the Tmax ([4]; 200 mg) was 0.67 h and the half-life ([4]; 200 mg, t1/2, median (Q1, Q3)) was 0.9 h. The AUC ([4]; iv) was 1590 ng·h/mL, the half-life ([4]; median t1/2) was about 1 h and the “dose recovered in urine as this analyte” value [5] was 10.3%. For the same compound, the “protein binding (bound)” value [14] was 88–93.6%, the “mean whole blood/plasma concentration ratio” value [15] was 0.76 and the “contribution to total metabolism” value [16] was 80%. For the same compound, the “contribution to total metabolism” value [17] was 10%, the “CYP-dependent hepatic metabolism, share of total hepatic clearance” value [18] was 10% and the “contribution to total metabolism” value [18] was 10%. The accumulation [6] was “lack of accumulation”, the “induction of enzymes or transporters via pregnane X receptor” value [19] was “no potential for induction” and the “induction of enzymes or transporters via aryl hydrocarbon receptor” value [20] was “no potential for induction”. For the same compound, the “inhibition of CYP3A4” value [21] was “weak inhibitor”, the “inhibition of OATP1B1” value [22] was “weak inhibitor” and the “inhibition of OATP1B3” value [23] was “weak inhibitor”. The “inhibition of MATE1” value [24] was “weak inhibitor”, the “metabolism by CYP2C8” value [25] was “can be metabolized” and the “metabolism by CYP2D6” value [26] was “can be metabolized”. The “metabolism by CYP3A” value [27] was “can be metabolized”, the “substrate for OATP1B1” value [28] was “substrate” and the “substrate for P-glycoprotein” value [29] was “substrate”.
